The source of these data is paper PMC8467577, “Infection Responsive Smart Delivery of Antibiotics Using Recombinant Spider Silk Nanospheres” (Pharmaceutics, 2021).

Peptide text beside a SMILES is read from it.

One series deals with thrombin. The following applies: releasing gentamicin linked to a polyvinyl alcohol (PVA) support matrix; cited from earlier work. The text has this:
Strategies utilizing microenvironments unique to tissues and disease states as a molecular cue to activate drug release has gained widespread attention in the treatment of various diseases like cancer, diabetes, and bacterial infections as it increases drug stability and therapeutic efficacy while decreasing toxic side effects at the same time. Several enzymes including a thrombin-like enzyme in S. aureus, myeloperoxidase in Candida, and esterases in uropathogens were reported to be elevated during infection, whereas virulence factors for certain bacteria like b ...

The subject of series [1] is S. aureus infected knee joint. In words: In vivo septic arthritis model, H&E histopathology of knee joint. Further details: species or system Sprague Dawley rats. The settings on record: H&E staining, 48 h after local treatment. On the procedure: After establishing the septic arthritis disease model, treatment with either free drug, drug-loaded conjugate particles, or drug-loaded silk particles was given on day two after bacterial inoculation. Rats were divided into three treatment groups (Table 1). The first group received drug-loaded (14 mg/kg) conjugate nanoparticles in the infected knee locally delivered into the synovial joint space while the uninfected knee was injected with unloaded conjugate nanoparticles. The second group received drug-loaded plain silk SX2 particles into the infected knee while the uninfected knee was injected with unloaded SX2 particles. The third group received a free drug into the infected knee joint and sterile PBS into the uninfected knee. The treatment was continued for 48 h after which rats were euthanized and limbs were collected for histopathological analysis. Before euthanasia, synovial fluid was collected from the joint space of the infected knee and the control knee of all the groups and cultured on LB agar plates overnight. After incubation overnight, the number of colonies were counted.
Histopathology was performed on the infected and uninfected bones by hematoxylin and eosin (H and E) stain. Initially the bones were harvested from the rat after euthanasia and fixed in 10% neutral buffered formalin for 72 h. […]

In the next series the test system is S. aureus. The settings on record: standard ZOI values of the free drug for SA; ref not given; cited from earlier work. On the procedure: To explore the potential efficacy of this delivery system for the treatment of S. aureus septic arthritis, the antibacterial effect of Vancomycin-loaded nanospheres was first tested in vitro on Staphylococcus aureus. […] Once the MIC was established, antibacterial activity was tested by a Kirby Bauer Zone of Inhibition assay.

The subject of series [2] is bacterial thrombin-like enzyme (media from an actively growing S. aureus culture). In words: Susceptibility to spent S. aureus culture media (HPLC). The following applies: for degradation of silk protein in S. aureus bacterial media: 48 h, different concentrations of spent bacterial media vs control without media, 37 °C, HPLC area under the curve. On the procedure:
(§1) The thrombin-sensitive peptide, […] (TSP), was custom synthesized by standard Fmoc synthesis (WatsonBio, Houston, TX, USA). The susceptibility of the peptide to the bacterial thrombin-like enzyme was assessed by exposing the peptide to media from an actively growing S. aureus culture. Enzymatic activity of the media was initially determined by titrating culture exudate into a fluorogenic thrombin substrate, Boc-Val-Pro-Arg-MCA (Sigma Aldrich, St. Louis, MO, USA). TSP was then exposed to the media with varying enzymatic activity and incubated at 37 °C with shaking. The sample was analyzed with HPLC (mobile phase 0.1% TFA/water (A) 0.1% TFA/Acetonitrile (B), under a gradient flow of 5–90% at a flow rate of 1.0 mL/min) every 12 h through 48 h. Protein was detected at a wavelength of 215 nm. A similar experiment was conducted with the recombinant spider silk to check the susceptibility of the silk protein to the bacterial enzyme.

For another series, the target named is human thrombin (Homo sapiens, UniProt P00734). On the procedure:
as §1
(§2) The susceptibility of the TSP to the bacterial thrombin-like enzyme was assessed by exposing the peptide to media from an actively growing S. aureus culture. Enzymatic activity of the bacterial culture was determined by a fluorogenic thrombin substrate, Boc-Val-Pro-Arg-MCA. TSP was initially titrated into media with varying enzymatic activity to determine the amount of enzyme required to cleave the peptide.

The conditions of series [3]: water control, HPLC. Here is the method: as §1, §2
Series [4] is described as follows: Exposure to human serum (HPLC). It counts as in vitro ADME. The source says:
Frequent and inappropriate usage of antibiotics has changed the natural evolution of bacteria by reducing susceptibility and increasing resistance towards antibacterial agents. New resistance mechanisms evolved in the response to host defenses and pharmaceutical interventions are threatening our ability to treat common infections, resulting in increased mortality. In the face of this rising epidemic, antibiotic drug discovery, which has long been overlooked by big pharma, is reaching a critical low. Thus, the development of an infection-responsive drug delivery system, which may mitigate multidrug resistance and preserve the lifetime of our current antibiotic arsenal, has garnered the attention of both popular science and funding agencies. The present work describes the development of a thrombin-sensitive linker embedded into a recombinant spider silk copolymer to create a nanosphere drug delivery vehicle. […] A thrombin sensitive peptide (TSP) was synthesized, and the thrombin cleavage sensitivity was determined by HPLC. […] Subsequently, the peptide was coupled with a silk copolymer via EDC-NHS chemistry and formulated into nanospheres encapsulating antibiotic vancomycin. These nanospheres were evaluated for in vitro infection-responsive drug release and antimicrobial activity. Finally, the drug responsive nanospheres were assessed for efficacy in an in vivo septic arthritis model. […]

Series [5] in a line: Critical aggregation concentration by pyrene fluorescence. It counts as physicochemical. The following applies: pyrene fluorescence I1/I3 (379/393 nm), phosphate buffer, sonicated 5 min, incubated 1 h. On the procedure: The critical aggregation concentration (CAC) of silk was determined by the pyrene fluorescence method. Briefly, 20 µL of 24 µg/mL (working concentration) of a pyrene solution was prepared in acetone and acetone was evaporated. Later, 980 µL of silk peptide in the phosphate buffer at different concentrations was then added to the pyrene, and the mixture was sonicated for 5 min and incubated for 1 h. The fluorescence spectra of the samples were recorded at an excitation of 336 nm and emission of 360–450 nm wavelengths. Intensity peaks at 379 nm (I1) and 393 nm (I3) were recorded. The ratio of I1/I3 was plotted against log concentration, and the point where a sharp inclination in the graph was noted as the CAC.

For the compound GFDPRGFPAGG, the “time to complete cleavage” value with thrombin was no more than 15 min.

Regarding `CN[C@H](CC(C)C)C(=O)N[C@H]1C(=O)N[C@@H](CC(N)=O)C(=O)N[C@H]2C(=O)N[C@H]3C(=O)N[C@H](C(=O)N[C@H](C(=O)O)c4cc(O)cc(O)c4-c4cc3ccc4O)[C@H](O)c3ccc(c(Cl)c3)Oc3cc2cc(c3O[C@@H]2O[C@H](CO)[C@@H](O)[C@H](O)[C@H]2O[C@H]2C[C@](C)(N)[C@H](O)[C@H](C)O2)Oc2ccc(cc2Cl)[C@H]1O` [vancomycin-free drug, vancomycin], the “histopathological findings in infected joint” value in series [1] is reported as “similar, if not more inflamed, appearance”. For the same compound, the “standard ZOI value” with S. aureus is given as greater than 12 mm.

Consider `C[C@H](NC(=O)[C@@H]1CCCN1C(=O)[C@H](Cc1ccccc1)NC(=O)CNC(=O)[C@H](CCCNC(=N)N)NC(=O)[C@@H]1CCCN1C(=O)[C@H](CC(=O)O)NC(=O)[C@H](Cc1ccccc1)NC(=O)CNC(=O)[C@H](CCCCN)NC(=O)[C@H](CC(=O)O)NC(=O)[C@H](CC(=O)O)NC(=O)[C@H](CC(=O)O)NC(=O)[C@H](CC(=O)O)NC(=O)[C@H](Cc1c[nH]cn1)NC(=O)[C@H](Cc1c[nH]cn1)NC(=O)[C@H](Cc1c[nH]cn1)NC(=O)[C@H](Cc1c[nH]cn1)NC(=O)[C@H](Cc1c[nH]cn1)NC(=O)[C@@H](N)Cc1c[nH]cn1)C(=O)NCC(=O)NCC(=O)O` [TSP] (H-HHHHHHDDDDKGFDPRGFPAGG-OH), for which the “cleavage on incubation with S. aureus exudate” value in series [2] (S. aureus exudate, HPLC) is “cleaved”. Moreover, the “time to cleavage of the peptide in S. aureus bacterial media” value in series [2] (media from actively growing S. aureus culture, enzymatic activity 23 a.u., 37 °C with shaking, HPLC 215 nm every 12 h through 48 h) was no more than 12 h. Moreover, on human thrombin, the “degradation in human thrombin after 48 h” value is recorded as “minimal degradation”, the “stability to human thrombin” value is on record as “still intact” and the “stability to human thrombin after 24 h” value is reported as “intact”. The “stability in water after 24 h” value in series [3] (24 h exposure, n = 3) was “intact”. Also, the stability in water entry in series [3] (data not shown) was “still intact”. In addition, the “cleavage on exposure to human serum” value in series [4] is “no cleavage”.

Consider “(GGYGPGQQGPGGYGPGQQGPSGPGSAAAAAAAA)2 [silk, recombinant MaSp2 spider silk protein, two consensus repeats, six histidine tag and enterokinase site, expressed in E. coli]”, for which the “degradation of silk protein in S. aureus bacterial media” value in series [2] (listed as silk peptide) was “stability of the peptide even after 48 h”; in series [2] (listed as silk protein), “no significant difference in the degradation”. The “critical aggregation concentration (CAC)” value in series [5] is listed as 1.2 mg/mL.
